# Experimental data reported in patent US20120034613A1, “Apparatus and Method for Testing Relationships Between Gene Expression and Physical Appearance of Skin” (NSE Products, Inc., priority 2010, published 2012).
# Tested on: EpidermFT™ Skin Model (EFT-400) full thickness skin cultures
# Assay: Affymetrix GeneChip HG U133 Plus 2.0 microarray global gene expression, agent-exposed vs untreated skin cultures
# Assay type: cell-based, human
# [1] = probe 206026_s_at, Table 3 skin structure
# [2] = probe 209126_x_at, Table 3 skin structure
# [3] = probe 209792_s_at, Table 3 skin structure
structure (smiles),measurement,setting,value
"OCc1ccccc1O[C@@H]1O[C@H](CO)[C@@H](O)[C@H](O)[C@H]1O [Salicin, 2-(Hydroxymethyl)phenyl β-D-glucospyranoside]",Direction PTPRG,"probe 204944_at, 0.5%, 24 hr",up
same,Fold change PTPRG,"probe 204944_at, 0.5%, 24 hr",2.299
same,Direction ITGB4,"probe 204990_s_at, 0.5%, 24 hr",down
same,Fold change ITGB4,"probe 204990_s_at, 0.5%, 24 hr",4.527
same,Direction FGFBP1,"probe 205014_at, 0.5%, 24 hr",down
same,Fold change FGFBP1,"probe 205014_at, 0.5%, 24 hr",3.406
same,Direction TGFA,"probe 205015_s_at, 0.5%, 24 hr",down
same,Fold change TGFA,"probe 205015_s_at, 0.5%, 24 hr",3.134
same,Direction FGF13,"probe 205110_s_at, 0.5%, 24 hr",up
same,Fold change FGF13,"probe 205110_s_at, 0.5%, 24 hr",2.158
same,Direction PTGS1,"probe 205128_x_at, 0.5%, 24 hr",up
same,Fold change PTGS1,"probe 205128_x_at, 0.5%, 24 hr",2.327
same,Direction IL6,"probe 205207_at, 0.5%, 24 hr",up
same,Fold change IL6,"probe 205207_at, 0.5%, 24 hr",3.197
same,Direction LIF,"probe 205266_at, 0.5%, 24 hr",up
same,Fold change LIF,"probe 205266_at, 0.5%, 24 hr",3.702
same,Direction ATP2B4,"probe 205410_s_at, 0.5%, 24 hr",up
same,Fold change ATP2B4,"probe 205410_s_at, 0.5%, 24 hr",3.984
same,Direction KLK11,"probe 205470_s_at, 0.5%, 24 hr",down
same,Fold change KLK11,"probe 205470_s_at, 0.5%, 24 hr",3.318
same,Direction TAGLN,"probe 205547_s_at, 0.5%, 24 hr",up
same,Fold change TAGLN,"probe 205547_s_at, 0.5%, 24 hr",2.426
same,Direction EREG,"probe 205767_at, 0.5%, 24 hr",up
same,Fold change EREG,"probe 205767_at, 0.5%, 24 hr",2.487
same,Direction FGF7,"probe 205782_at, 0.5%, 24 hr",up
same,Fold change FGF7,"probe 205782_at, 0.5%, 24 hr",3.158
same,Direction KLK13,"probe 205783_at, 0.5%, 24 hr",down
same,Fold change KLK13,"probe 205783_at, 0.5%, 24 hr",3.619
same,Direction CLGN,"probe 205830_at, 0.5%, 24 hr",up
same,Fold change CLGN,"probe 205830_at, 0.5%, 24 hr",2.486
same,Direction KRT1,"probe 205900_at, 0.5%, 24 hr",down
same,Fold change KRT1,"probe 205900_at, 0.5%, 24 hr",4.141
same,Direction CREB5,"probe 205931_s_at, 0.5%, 24 hr",up
same,Fold change CREB5,"probe 205931_s_at, 0.5%, 24 hr",9.909
same,Direction IL15,"probe 205992_s_at, 0.5%, 24 hr",up
same,Fold change IL15,"probe 205992_s_at, 0.5%, 24 hr",4.326
same,Direction TNFAIP6,"probe 206025_s_at, 0.5%, 24 hr",up
same,Fold change TNFAIP6,"probe 206025_s_at, 0.5%, 24 hr",3.182
same,Direction TNFAIP6,[1],up
same,Fold change TNFAIP6,[1],2.52
same,Direction DSC3,"probe 206033_s_at, 0.5%, 24 hr",down
same,Fold change DSC3,"probe 206033_s_at, 0.5%, 24 hr",4.676
same,Direction BMP6,"probe 206176_at, 0.5%, 24 hr",up
same,Fold change BMP6,"probe 206176_at, 0.5%, 24 hr",7.765
same,Direction CDSN,"probe 206193_s_at, 0.5%, 24 hr",down
same,Fold change CDSN,"probe 206193_s_at, 0.5%, 24 hr",11.11
same,Direction MAP3K13,"probe 206249_at, 0.5%, 24 hr",up
same,Fold change MAP3K13,"probe 206249_at, 0.5%, 24 hr",2.252
same,Direction IL18,"probe 206295_at, 0.5%, 24 hr",down
same,Fold change IL18,"probe 206295_at, 0.5%, 24 hr",19.31
same,Direction CCL13,"probe 206407_s_at, 0.5%, 24 hr",up
same,Fold change CCL13,"probe 206407_s_at, 0.5%, 24 hr",5.516
same,Direction F2RL1,"probe 206429_at, 0.5%, 24 hr",down
same,Fold change F2RL1,"probe 206429_at, 0.5%, 24 hr",2.099
same,Direction IL24,"probe 206569_at, 0.5%, 24 hr",up
same,Fold change IL24,"probe 206569_at, 0.5%, 24 hr",8.737
same,Direction IL18R1,"probe 206618_at, 0.5%, 24 hr",up
same,Fold change IL18R1,"probe 206618_at, 0.5%, 24 hr",2.865
same,Direction HAL,"probe 206643_at, 0.5%, 24 hr",down
same,Fold change HAL,"probe 206643_at, 0.5%, 24 hr",55.87
same,Direction DGKI,"probe 206806_at, 0.5%, 24 hr",up
same,Fold change DGKI,"probe 206806_at, 0.5%, 24 hr",2.74
same,Direction IL11,"probe 206924_at, 0.5%, 24 hr",up
same,Fold change IL11,"probe 206924_at, 0.5%, 24 hr",9.694
same,Direction IL8RB,"probe 207008_at, 0.5%, 24 hr",down
same,Fold change IL8RB,"probe 207008_at, 0.5%, 24 hr",11.11
same,Direction DSC1,"probe 207324_s_at, 0.5%, 24 hr",down
same,Fold change DSC1,"probe 207324_s_at, 0.5%, 24 hr",12.95
same,Direction PTGES,"probe 207388_s_at, 0.5%, 24 hr",up
same,Fold change PTGES,"probe 207388_s_at, 0.5%, 24 hr",2.768
same,Direction CSF3,"probe 207442_at, 0.5%, 24 hr",up
same,Fold change CSF3,"probe 207442_at, 0.5%, 24 hr",11.09
same,Direction IL1RL1,"probe 207526_s_at, 0.5%, 24 hr",up
same,Fold change IL1RL1,"probe 207526_s_at, 0.5%, 24 hr",9.09
same,Direction LCE2B,"probe 207710_at, 0.5%, 24 hr",down
same,Fold change LCE2B,"probe 207710_at, 0.5%, 24 hr",200.5
same,Direction LOR,"probe 207720_at, 0.5%, 24 hr",down
same,Fold change LOR,"probe 207720_at, 0.5%, 24 hr",32.35
same,Direction KRT9,"probe 208188_at, 0.5%, 24 hr",down
same,Fold change KRT9,"probe 208188_at, 0.5%, 24 hr",2.539
same,Direction SPRR2B,"probe 208539_x_at, 0.5%, 24 hr",down
same,Fold change SPRR2B,"probe 208539_x_at, 0.5%, 24 hr",5.554
same,Direction PDE3B,"probe 208591_s_at, 0.5%, 24 hr",up
same,Fold change PDE3B,"probe 208591_s_at, 0.5%, 24 hr",2.851
same,Direction FADS1,"probe 208962_s_at, 0.5%, 24 hr",up
same,Fold change FADS1,"probe 208962_s_at, 0.5%, 24 hr",2.889
same,Direction KRT6A,"probe 209125_at, 0.5%, 24 hr",down
same,Fold change KRT6A,"probe 209125_at, 0.5%, 24 hr",2.034
same,Direction KRT6B,[2],down
same,Fold change KRT6B,[2],3.952
same,Direction TM4SF1,"probe 209387_s_at, 0.5%, 24 hr",up
same,Fold change TM4SF1,"probe 209387_s_at, 0.5%, 24 hr",3.187
same,Direction SPON1,"probe 209437_s_at, 0.5%, 24 hr",up
same,Fold change SPON1,"probe 209437_s_at, 0.5%, 24 hr",2.36
same,Direction CALM1 /// CALM2 /// CALM3,"probe 209563_x_at, 0.5%, 24 hr",down
same,Fold change CALM1 /// CALM2 /// CALM3,"probe 209563_x_at, 0.5%, 24 hr",2.029
same,Direction GATA3,"probe 209602_s_at, 0.5%, 24 hr",down
same,Fold change GATA3,"probe 209602_s_at, 0.5%, 24 hr",15.7
same,Direction CXCL2,"probe 209774_x_at, 0.5%, 24 hr",up
same,Fold change CXCL2,"probe 209774_x_at, 0.5%, 24 hr",7.546
same,Direction CASP6,"probe 209790_s_at, 0.5%, 24 hr",down
same,Fold change CASP6,"probe 209790_s_at, 0.5%, 24 hr",2.668
same,Direction KLK10,[3],down
same,Fold change KLK10,[3],4.49
same,Direction PKP3,"probe 209873_s_at, 0.5%, 24 hr",down
same,Fold change PKP3,"probe 209873_s_at, 0.5%, 24 hr",4.615
same,Direction CALML3,"probe 210020_x_at, 0.5%, 24 hr",down
same,Fold change CALML3,"probe 210020_x_at, 0.5%, 24 hr",11.27
same,Direction CSF2,"probe 210229_s_at, 0.5%, 24 hr",up
same,Fold change CSF2,"probe 210229_s_at, 0.5%, 24 hr",16.55
same,Direction FLT1,"probe 210287_s_at, 0.5%, 24 hr",up
same,Fold change FLT1,"probe 210287_s_at, 0.5%, 24 hr",3.95
same,Direction HYAL1,"probe 210619_s_at, 0.5%, 24 hr",down
same,Fold change HYAL1,"probe 210619_s_at, 0.5%, 24 hr",4.538
